Assay results taken from patent US12018021B2 (UCB Biopharma SRL, priority 2018, dated 2024).
Structures can show the parent of a compound that is named as a salt.

Target: IgE-Tb / FcεRIα-Y131A-AF488 (Homo sapiens, UniProt P01854)
Assay: IgE-Tb / FcεRIα-Y131A-AF488 FRET assay (protocol for examples 1 to 233)
Type: binding
Settings: examples 1 to 233: 5 nM IgE-Tb, 25 nM FcεRIα-Y131A-AF488, incubated 2 hours at room temperature; read-out: Y131A FRET IC50 range
Description: For examples 1 to 233, the assay was conducted according to the following: Each assay reaction was conducted in a volume of 25 μl in a 384-well half-volume plate. 10 point compound serial dilutions (3-fold) were generated in DMSO at a concentration of ×50 that of the final assay concentration (FAC). Compound solutions were then prepared by IgE-Tb diluting 10-fold in assay buffer. For the assay, 5 μl of diluted compound was added to 10 μl of, followed by addition of 10 μl FcεRIα-Y131A-AF488. FRET reagents FACs were 5 nM IgE-Tb, 25 nM FcεRIα-Y131A-AF488. Usually the top FAC of compound in the assay was 10 μM. The final DMSO concentration was 2%. The minimum signal (MIN) was measured by adding 5l unlabelled FcεRIα at 1 μM (FAC=200 nM) to the FRET reagents. The maximum FRET signal (MAX) was measured in wells containing FRET reagents but no compound. The assay was incubated for 2 hours at room temperature, protected from light and evaporation, and with gentle agitation.
Measurement of FRET for each well was carried out by exciting at 330 nm and measuring emission at 495/520 nm using an Envision plate reader (Perkin Elmer). FRET ratio was calculated as follows: Emission at 520/Emission at 495×1000.
The FRET ratio was used for the data analysis.
Z′ was calculated as follows (σ=standard deviation and μ=mean): 1−((3×σMAX)+(3×σMIN))/(μMAX−μMIN)
Z′ above 0.5 was considered a good assay.
Background signal (MIN) was subtracted from all wells. Using the background subtracted values, the percent inhibition by compound in each test-well was calculated as follows: 100−Test-well FRET ratio/MAX FRET ratio×100.
Percent inhibition was plotted against compound concentration. IC50 values for each compound were determined using four parameter logistic fit model using the XLFIT5 software package.

IgE-Tb / FcεRIα-Y131A-AF488, sequence (P01854 1-427 limits assumed, stated change not applied): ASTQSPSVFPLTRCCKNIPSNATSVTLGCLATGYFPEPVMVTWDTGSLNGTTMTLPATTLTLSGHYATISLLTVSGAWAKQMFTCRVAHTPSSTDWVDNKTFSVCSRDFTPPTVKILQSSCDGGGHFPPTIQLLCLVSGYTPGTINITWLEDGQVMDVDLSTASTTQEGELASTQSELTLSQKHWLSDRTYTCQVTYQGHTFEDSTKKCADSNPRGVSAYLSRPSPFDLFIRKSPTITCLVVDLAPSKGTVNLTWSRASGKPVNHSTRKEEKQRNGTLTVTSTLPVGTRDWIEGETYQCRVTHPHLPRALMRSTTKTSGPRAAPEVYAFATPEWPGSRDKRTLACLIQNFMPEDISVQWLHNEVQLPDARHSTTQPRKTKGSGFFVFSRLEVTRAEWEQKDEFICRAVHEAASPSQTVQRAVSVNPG

| SMILES | IC50 |
| --- | --- |
| NCC1(O)CCc2sc(NC(=O)C3CC3)c(C(=O)NCC3CC3)c2C1 (stereo not shown) [Example 69, 5-(Aminomethyl)-2-(cyclopropanecarbonylamino)-N-(cyclopropylmethyl)-5-hydroxy-6,7-dihydro-4H-benzothiophene-3-carboxamide] | 10 to 50 µM |
| O=C(NC1CCc2sc(NC(=O)C3CC3)c(C(=O)NCC3CC3)c2C1)c1ccncc1 (stereo not shown) [Example 173, N-[2-(Cyclopropanecarbonylamino)-3-(cyclopropylmethylcarbamoyl)-4,5,6,7-tetrahydrobenzothiophen-5-yl]pyridine-4-carboxamide] | 1 to 10 µM |
| O=C1NCc2cc(NC(=O)C3CCc4sc(NC(=O)C5CC5)c(S(=O)(=O)NCC5CC5)c4C3)ccc21 (stereo not shown) [Example 32, 2-(Cyclopropanecarbonylamino)-3-(cyclopropylmethylsulfamoyl)-N-(1-oxoisoindolin-5-yl)-4,5,6,7-tetrahydrobenzothiophene-5-carboxamide] | < 1 µM |
| O=C(Nc1sc2c(c1S(=O)(=O)N1CCCC1)CCCC2)C1CC1 [Example 20, N-(3-Pyrrolidin-1-ylsulfonyl-4,5,6,7-tetrahydrobenzothiophen-2-yl)cyclopropanecarboxamide] | 1 to 10 µM |
| Cc1nn(C)cc1Nc1nncn1[C@H]1CCc2sc(NC(=O)C3CC3)c(C(=O)NCC3CC3)c2C1 [Example 218, (5S)-2-(cyclopropanecarbonylamino)-N-(cyclopropylmethyl)-5-[3-[(1,3-dimethylpyrazol-4-yl)amino]-1,2,4-triazol-4-yl]-4,5,6,7-tetrahydrobenzothiophene-3-carboxamide] | < 1 µM |
| O=C(NCC1CC1)c1c(NC(=O)C2CC2)sc2c1CC(C(=O)N1CCS(=O)(=O)CC1)CC2 (stereo not shown) [Example 56, 2-(Cyclopropanecarbonylamino)-N-(cyclopropylmethyl)-5-(1,1-dioxo-1,4-thiazinane-4-carbonyl)-4,5,6,7-tetrahydrobenzothiophene-3-carboxamide] | 10 to 50 µM |
| Cc1ncccc1Nc1nccn1[C@H]1CCc2sc(NC(=O)C3CC3)c(C(=O)NCC3CC3)c2C1 [Example 150, (5S)-2-(Cyclopropanecarbonylamino)-N-(cyclopropylmethyl)-5-[2-[(2-methyl-3-pyridyl)amino]imidazol-1-yl]-4,5,6,7-tetrahydrobenzothiophene-3-carboxamide] | < 1 µM |
| O=C(NCC1CC1)c1c(NC(=O)C2CC2)sc2c1CN(CCc1ccccc1)CC2 [Example 11, 2-(Cyclopropanecarbonylamino)-N-(cyclopropylmethyl)-5-(2-phenylethyl)-6,7-dihydro-4H-thieno[3,2-c]pyridine-3-carboxamide] | 10 to 50 µM |
| O=C(Nc1sc2c(c1C(=O)N1CCC3(CC3)C1)CC(n1cnnc1Nc1cccnc1)CC2)C1CC1 (single isomer, unassigned) [Example 129] | 1 to 10 µM |
| CC(O)CNS(=O)(=O)c1c(NC(=O)C2CC2)sc2c1CCCC2 (stereo not shown) [Example 19, N-[3-(2-Hydroxypropylsulfamoyl)-4,5,6,7-tetrahydrobenzothiophen-2-yl]cyclopropanecarboxamide] | < 1 µM |
| CCNc1nnc(CO)n1C1CCc2sc(NC(=O)C3CC3)c(C(=O)NCC3CC3)c2C1 (stereo not shown) [Example 184, 2-(Cyclopropanecarbonylamino)-N-(cyclopropylmethyl)-5-[3-(ethylamino)-5-(hydroxymethyl)-1,2,4-triazol-4-yl]-4,5,6,7-tetrahydrobenzothiophene-3-carboxamide] | < 1 µM |
| N#Cc1ncn([C@H]2CCc3sc(NC(=O)C4CC4)c(C(=O)NCC4CC4)c3C2)c1N [Example 104, (5S)-5-(5-Amino-4-cyano-imidazol-1-yl)-2-(cyclopropanecarbonylamino)-N-(cyclopropylmethyl)-4,5,6,7-tetrahydrobenzothiophene-3-carboxamide] | < 1 µM |
| O=C(NCC1CC1)c1c(NC(=O)C2CC2)sc2c1CC(Nc1noc(=O)[nH]1)CC2 (stereo not shown) [Example 119, 2-(Cyclopropanecarbonylamino)-N-(cyclopropylmethyl)-5-[(5-oxo-4H-1,2,4-oxadiazol-3-yl)amino]-4,5,6,7-tetrahydrobenzothiophene-3-carboxamide] | < 1 µM |
| Cc1ccc(NC(=Nc2ccn(C)n2)NC2CCc3sc(NC(=O)C4CC4)c(C(=O)NCC4CC4)c3C2)cc1 (stereo not shown) [Example 177, 2-(Cyclopropanecarbonylamino)-N-(cyclopropylmethyl)-5-[[N′-(1-methylpyrazol-3-yl)-N-(p-tolyl)carbamimidoyl]amino]-4,5,6,7-tetrahydrobenzothiophene-3-carboxamide; formic acid] | 1 to 10 µM |
| CCN(C)c1c(NC2CCc3sc(NC(=O)C4CC4)c(C(=O)NCC4CC4)c3C2)c(=O)c1=O (stereo not shown) [Example 195, 2-(Cyclopropanecarbonylamino)-N-(cyclopropylmethyl)-5-[[2-[ethyl(methyl)amino]-3,4-dioxo-cyclobuten-1-yl]amino]-4,5,6,7-tetrahydrobenzothiophene-3-carboxamide] | < 1 µM |
| O=C(NCC1CC1)c1c(NC(=O)C2CC2)sc2c1CC(Nc1ncccn1)CC2 (stereo not shown) [Example 191, 2-(Cyclopropanecarbonylamino)-N-(cyclopropylmethyl)-5-(pyrimidin-2-ylamino)-4,5,6,7-tetrahydrobenzothiophene-3-carboxamide] | < 1 µM |
| O=C(NCC1CC1)c1c(NC(=O)C2CC2)sc2c1CC(C(=O)N1CCCC1)CC2 (stereo not shown) [Example 73, 2-(Cyclopropanecarbonylamino)-N-(cyclopropylmethyl)-5-(pyrrolidine-1-carbonyl)-4,5,6,7-tetrahydrobenzothiophene-3-carboxamide] | 1 to 10 µM |
| Cc1coc(C2CCc3sc(NC(=O)C4CC4)c(C(=O)NCC4CC4)c3C2)n1 (stereo not shown) [Example 68, 2-(Cyclopropanecarbonylamino)-N-(cyclopropylmethyl)-5-(4-methyloxazol-2-yl)-4,5,6,7-tetrahydrobenzothiophene-3-carboxamide] | 1 to 10 µM |
| O=C(NCC1CC1)c1c(NC(=O)C2CC2)sc2c1C[C@@H](C(F)(F)F)CC2 [Example 67, (5S)-2-(Cyclopropanecarbonylamino)-N-(cyclopropylmethyl)-5-(trifluoromethyl)-4,5,6,7-tetrahydrobenzothiophene-3-carboxamide] | < 1 µM |
| NS(=O)(=O)c1cccc(NC(=O)C2CCc3sc(NC(=O)C4CC4)c(S(=O)(=O)NCC4CC4)c3C2)c1 (stereo not shown) [Example 33, 2-(Cyclopropanecarbonylamino)-3-(cyclopropylmethylsulfamoyl)-N-(3-sulfamoylphenyl)-4,5,6,7-tetrahydrobenzothiophene-5-carboxamide] | < 1 µM |
| CC(C)(C)OC(=O)NCCN1CCc2sc(NC(=O)C3CC3)c(C(=O)NCC3CC3)c2C1 [Example 10, Tert-butyl N-[2-[2-(cyclopropanecarbonylamino)-3-(cyclopropylmethylcarbamoyl)-6,7-dihydro-4H-thieno[3,2-c]pyridin-5-yl]ethyl]carbamate] | 10 to 50 µM |
| C[C@@H]1CCc2sc(NC(=O)C3CC3)c(C(=O)NCC3CC3)c21 (single isomer, unassigned) [Example 13] | 1 to 10 µM |
| O=C(NCC1CC1)c1c(NC(=O)C2CC2)sc2c1CNCC2 [Example 3, 2-(Cyclopropanecarbonylamino)-N-(cyclopropylmethyl)-4,5,6,7-tetrahydrothieno[3,2-c]pyridine-3-carboxamide; hydrochloride] | 10 to 50 µM |
| O=C(Nc1sc2c(c1C(=O)N1CC[C@@H](F)C1)CCCC2)C1CC1 [Example 75, N-[3-[(3R)-3-Fluoropyrrolidine-1-carbonyl]-4,5,6,7-tetrahydrobenzothiophen-2-yl]cyclopropanecarboxamide] | 1 to 10 µM |
| CC(=O)Nc1cncn1[C@H]1CCc2sc(NC(=O)C3CC3)c(C(=O)NCC3CC3)c2C1 [Example 113, (5S)-5-(5-Acetamidoimidazol-1-yl)-2-(cyclopropanecarbonylamino)-N-(cyclopropylmethyl)-4,5,6,7-tetrahydrobenzothiophene-3-carboxamide] | < 1 µM |
| CCN/C(=N\[N+](=O)[O-])N[C@H]1CCc2sc(NC(=O)C3CC3)c(C(=O)NCC3CC3)c2C1 [Example 145, (5S)-2-(Cyclopropanecarbonylamino)-N-(cyclopropylmethyl)-5-[[(E)-N-ethyl-N′-nitro-carbamimidoyl]amino]-4,5,6,7-tetrahydrobenzothiophene-3-carboxamide] | < 1 µM |
| CNC(=O)c1c(NC(=O)C2CC2C)sc2c1CCCC2 (mixture of isomers) [Example 102, N-Methyl-2-[(2-methylcyclopropanecarbonyl)amino]-4,5,6,7-tetrahydrobenzothiophene-3-carboxamide] | 10 to 50 µM |
| O=C(NCC1CC1)c1c(NC(=O)C2CCC2)sc2c1CCCC2 [Example 88, 2-(Cyclobutanecarbonylamino)-N-(cyclopropylmethyl)-4,5,6,7-tetrahydrobenzothiophene-3-carboxamide] | 10 to 50 µM |
